According to patent publication US12134663B2, “Cationic peptides for activating Lck” (Interk Peptide Therapeutics Limited, priority 2018, dated 2024):
Where no end group is shown, it is not given here. [ ]: non-standard residue; d: D form.

B1: CD40L: CD40L (5 ug/mL) added to immature monocyte derived DC cultures (protein, UniProt P29965 113-261, looked up)
CD40 ligand, soluble form: MQKGDQNPQIAAHVISEASSKTTSVLQWAEKGYYTMSNNLVTLENGKQLTVKRQGLYYIYAQVTFCSNREASSQAPFIASLCLKSPGRFERILLRAANTHSSAKPCGQQSIHLGGVFELQPGASVFVNVTDPSQVSHGTGFTSFGLLKL

Columns and labels:
isolated T cells (CD3+) = assay: IL-2 secretion from isolated T cells (CD3+); assay type: cell-based, human; settings: anti-CD3 anti-CD28 Dynabeads, 0-1.25 μM, 72 hours
Experimental: In brief, isolated T cells (CD3+) were stimulated with anti-CD3 anti-CD28 Dynabeads™ and cultured together the Lck activating polypeptides RSKAKNPLY-RRRRRRRRR (SEQ ID NO: 24, “IK14800”), RVKVKVVVV-RRRRRRRRR (SEQ ID NO: 58, “IK15800”), and RVKVKVVVV-RRRRRRRRR ([…]) comprising only D amino acids (i.e. rvkvkvvvv-rrrrrrrrr; […], “IKD15800”), over a 5-concentration range plus vehicle control (0-1.25 μM) for 72 hours after which supernatants were collected and assessed for IL-2 by ELISA.

CD4+ T cells = assay: pSTAT4 expression in stimulated T cell assay; assay type: cell-based, human; settings: 0-1.25 μM, 72 hours; data not shown
Excerpt: The effect of Lck activating polypeptides on intracellular pSTAT4 expression in CD4+ and CD8+ T cells in a stimulated T cell assay was examined. In brief, isolated T cells (CD3+) were stimulated with anti-CD3 anti-CD28 Dynabeads™ and cultured together with the Lck activating polypeptides RSKAKNPLY-RRRRRRRRR (SEQ ID NO: 24), RVKVKVVVV-RRRRRRRRR (SEQ ID NO: 58) and RVKVKVVVV-RRRRRRRRR (SEQ ID NO: 58) comprising only D amino acids (SEQ ID NO: 111), over a 5-concentration range plus vehicle control (0-1.25 μM) for 72 hours after which […] assessed for p-STAT4 expression by flow cytometry.

CD3neg CD56+ NK cells = CD3neg CD56+ NK cells within stimulated PBMCs (Ki67, CD25, CD215, CD360); assay type: cell-based, human; settings: data not shown
Experimental: The ability of Lck activating polypeptides to induce proliferation of isolated human CD3^neg CD56^+ NK cells within PBMCs was examined. In brief, anti-CD3 stimulated PBMCs were cultured together with the Lck activating polypeptide rvkvkvvvv-rrrrrrrrr (SEQ ID NO: 111, IKD15800) for 72 hours after which CD3^neg CD56^+ NK cells were assessed for Ki67 expression by flow cytometry. Ki67 is a proliferation marker used to determine the growth fraction of a given cell population, in this case CD3^neg CD56^+ NK cells.

[1] = test system: anti-CD3 stimulated PBMCs; assay: IL-12p70 secretion in anti-CD3 stimulated PBMCs; assay type: cell-based, human; settings: 24 hours
Experimental: The ability of Lck activating polypeptides to alter IL-12 (IL-12p70) secretion was examined further. In brief, anti-CD3 stimulated PBMCs were cultured together with the Lck activating polypeptides RVKVKVVVV-RRRRRRRRR (SEQ ID NO: 58, “IK15800”), RSKAKNPLY-RRRRRRRRR (SEQ ID NO: 24, “IK14800”), and RVKVKVVVV-RRRRRRRRR (SEQ ID NO: 58) and RSKAKNPLY-RRRRRRRRR (SEQ ID NO: 24) comprising only D amino acids (SEQ ID NO: 111, “IKD15800”, and SEQ ID NO: 129, “IKD14800”, respectively), in the presence and absence of anti-CD40L blocking antibody for 24 hours. Supernatants were assessed for IL-12p70 levels by ELISA.
The ability of Lck activating polypeptides to alter IL-12 (IL-12p70) secretion was examined relative to no peptide. In brief, PBMCs were cultured together with anti-CD3 (1 ug/ml) and the Lck activating polypeptide RSKAKNPLY-RRRRRRRRR (SEQ ID NO: 24) or RVKVKVVVV-RRRRRRRRR (SEQ ID NO: 58) for 24 or 72 hours. Supernatants were assessed for IL-12p70 levels by ELISA.

[2] = test system: isolated human CD8+ T cells; assay: IFN-γ secretion in stimulated CD8+ T cell assay; assay type: cell-based; settings: anti-CD3 anti-CD28 Dynabeads, 24 hours
Experimental: (§1) The ability of Lck activating polypeptides to alter IFN-γ secretion by isolated human CD8+ T cells in a stimulated CD8+ T cell assay was examined. In brief, Isolated CD8+ T cells were stimulated with anti-CD3 anti-CD28 Dynabeads™ and cultured together with the Lck activating polypeptides RRRRRRRRR (SEQ ID NO: 6, IK00900) and RSKAKNPLY-RRRRRRRRR (SEQ ID NO: 24, IK14800) for 24 hours after which supernatants were assessed for IFN-γ by ELISA.
In brief, Isolated CD8+ T cells were stimulated with anti-CD3 anti-CD28 Dynabeads™ and cultured together with the Lck activating polypeptide RSKAKNPLY-RRRRRRRRR (SEQ ID NO: 24), comprising only D amino acids (SEQ ID NO: 129, IKD14800), for 24 hours after which supernatants were assessed for IFN-γ by ELISA.

isolated CD4+ T cells = assay: IL-18Ra expression on stimulated CD4+ T cells; assay type: cell-based, human; settings: 24 hours; data not shown
Experimental: (§2) Isolated CD4+ T cells were stimulated with anti-CD3 anti-CD28 Dynabeads™ and cultured together with the Lck activating polypeptides RSKAKNPLY-RRRRRRRRR (SEQ ID NO: 24), and RSKAKNPLY-RRRRRRRRR (SEQ ID NO: 24) comprising only D amino acids (SEQ ID NO: 129), for 24 hours after which cells were assessed for IL-18Ra expression by flow cytometry.

[3] = test system: isolated human CD4+ T cells; assay: IFN-γ secretion in stimulated CD4+ T cell assay; assay type: cell-based; settings: anti-CD3 anti-CD28 Dynabeads, 24 hours
Experimental: as §1, with “CD4+” for “CD8+”, “was also” for “was”
The ability of Lck activating polypeptides comprising D amino acids to alter IFN-γ secretion by isolated human CD4+ T cells in a stimulated CD4+ T cell assay was also examined. In brief, Isolated CD4+ T cells were stimulated with anti-CD3 anti-CD28 Dynabeads™ and cultured together with the Lck activating polypeptide RSKAKNPLY-RRRRRRRRR (SEQ ID NO: 24, IK14800), or the Lck activating polypeptide RSKAKNPLY-RRRRRRRRR (SEQ ID NO: 24) comprising only D amino acids (SEQ ID NO: 129, IKD14800), for 24 hours after which supernatants were assessed for IFN-γ by ELISA.

Lck = biological target: T1, Lck (Homo sapiens, UniProt P06239); assay: In vitro Lck activation kinase study (Eurofins); assay type: biochemical; settings: peptide 1 μM; relative to control
T1 construct: purchased Eurofins Pharma Discovery Services UK Limited
T1 sequence (P06239 whole entry): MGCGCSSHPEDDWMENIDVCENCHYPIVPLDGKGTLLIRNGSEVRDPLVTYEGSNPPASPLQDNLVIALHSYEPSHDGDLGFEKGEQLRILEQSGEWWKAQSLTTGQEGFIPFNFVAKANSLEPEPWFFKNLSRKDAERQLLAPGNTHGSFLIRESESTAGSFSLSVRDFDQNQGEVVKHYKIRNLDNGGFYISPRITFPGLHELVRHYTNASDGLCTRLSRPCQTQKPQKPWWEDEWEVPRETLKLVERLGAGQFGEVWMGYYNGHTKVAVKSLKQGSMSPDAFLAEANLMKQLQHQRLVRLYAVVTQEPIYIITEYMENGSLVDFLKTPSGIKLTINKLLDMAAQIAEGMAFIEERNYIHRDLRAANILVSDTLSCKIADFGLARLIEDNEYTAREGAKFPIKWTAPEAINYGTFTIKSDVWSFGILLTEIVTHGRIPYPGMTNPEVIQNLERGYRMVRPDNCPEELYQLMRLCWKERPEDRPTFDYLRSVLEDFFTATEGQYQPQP
Experimental: The ability of polypeptides of the present invention to activate Lck was examined in vitro. Lck is member of the Src family of tyrosine kinases. […] All results in are percentage Lck activity relative to control (100%).
Test polypeptides were assessed at a concentration of 1.0 μM.
The ability of polypeptides of the present invention to activate Src family kinases was examined in vitro. Kinase activation studies utilising peptides were carried out as described in Example 1, and all kinase activity values are shown as percentage relative to control.
The ability of polypeptides comprising both lysine and arginine to activate Lck in vitro was examined. Lck activation studies utilising peptides were carried out as described in Example 1, and all kinase activity values are shown as percentage relative to control.

isolated CD8+ T cells = assay: IL-18Ra expression on stimulated CD8+ T cells; assay type: cell-based, human; settings: 24 hours; data not shown
Experimental: as §2, with “The effect of Lck activating polypeptides on IL-18Ra expression on” for “Isolated”, “CD4+ and CD8+ T cells in stimulated CD4+ and CD8+ T cell assays was examined. In brief, isolated CD8+” for “CD4+”

exhausted CD4+ T cells = assay: CD4+ T cell exhaustion assay, CD25 on restimulation; assay type: cell-based, murine; settings: 72 hours; relative to IK14000 control peptide
Excerpt: A CD4+ T cell exhaustion assay using a murine model (Tg4 Ly5.1 (MBP-Tracker Mouse), B10PIxC57BL/6) was used whereby CD4+ T cell receptor transgenic T cells are stimulated with wild-type myelin basic protein peptide (WT-MBP) to produce fully responsive effector T cells or altered peptide ligand peptide MBP (APL-MBP) to produce exhausted T cells. These are rested in IL-2 and then a secondary stimulation with APC, a dose of APL-MBP peptide along with any treatments under investigation.
Spleens from the aforementioned mice were removed and processed to generate a single cell suspension of splenocytes. MBP-Tracker splenocytes were resuspended at 3×10^6/mL and stimulated with WT-MBP (control, non-exhausted cells) or APL-MBP (to generate exhausted cells). Cells were stimulated for 72 hr. Following stimulation, T cells were purified by Ficoll density gradient, and subsequently re-plated at 2×10^6/mL in 20 U/mL IL-2 for four days. […] Following 48-72b hours of culture the cells were assessed by flow cytometry for markers of IL-2Ra and proliferation (CD25 and Ki-67, respectively) and supernatant was collected for assessment of cytokine production (IFN-γ and TNF-α) by ELISA or multiplexed immunoassays. […]

[4] = test system: immature monocyte derived DCs (iMoDCs); assay: Dendritic cell phenotype (CD14 expression) in immature DC cultures; assay type: cell-based; settings: CD40L 5 ug/mL and anti-CD3, 72 hours; data not shown
Experimental: The effect of CD40L on dendritic cell phenotype (CD14 expression) in isolated immature DC cell cultures was examined. In brief, immature monocyte derived DCs (iMoDCs) were derived from isolated CD14+ monocytes cultured for 7 days in MoDC differentiation media. iMoDCs were cultured for 72 hours in the presence of CD40L (5 ug/mL) and anti-CD3 (1 ug/mL). After 72 hours, cells were assessed for CD14 and CD11c expression by flow cytometry to determine DC cell phenotype.
In brief, immature monocyte derived DCs (iMoDCs) were derived from isolated CD14+ monocytes cultured for 7 days in Mo-DC differentiation media. iMoDCs were cultured for 72 hrs in the presence of test peptides over a 5-point concentration curve plus vehicle (0-1.25 μM) and anti-CD3 (1 μg/mL). After 72 hrs, cells were assessed for CD14 and CD11c expression by flow cytometry to determine DC cell phenotype. Data presented indicates the mean respective CD14 positive or negative cell populations (%) within CD11c positive population in response to peptide treatment, +/− SEM, n=4. Data were analysed by RM two-way ANOVA with Dunnett's post-test comparing each peptide concentration with vehicle, *p<0.05, **p<0.01, ***p<0.001.

Molecule	IL-2 secretion relative to control (isolated T cells (CD3+))	p-STAT4 expression on CD4+ T cells (CD4+ T cells)	proliferating population of CD3neg CD56+ NK cells (Ki67) (CD3neg CD56+ NK cells; 72 hours)	population of CD3neg CD56+ NK cells that were CD25 positive (CD3neg CD56+ NK cells)	population of CD3neg CD56+ NK cells that were CD215 positive (CD3neg CD56+ NK cells)	population of CD3neg CD56+ NK cells that were CD360 positive (CD3neg CD56+ NK cells)	IL-12 (IL-12p70) secretion relative to cultures with anti-CD40L blocking antibody [1]	IFN-γ secretion relative to no peptide control [2]	IL-18Ra expression on CD4+ T cells (isolated CD4+ T cells)	IFN-γ secretion relative to no peptide control [3]	increase in Lck activity (Lck) [%]	IL-18Ra expression on CD8+ T cells (isolated CD8+ T cells)	expression of CD25 in exhausted CD4+ T cells upon restimulation (exhausted CD4+ T cells)	proportion of CD14 negative CD11c+ dendritic cells [4]
rvkvkvvvv-rrrrrrrrr ([dR][dV][dK][dV][dK][dV][dV][dV][dV][dR][dR][dR][dR][dR][dR][dR][dR][dR]) [IKD15800]	induce IL-2 secretion	increase p-STAT4 expression	increased the proliferating population	increased the population	increased the population	increased the population	induce IL-12 secretion	–	–	–	–	–	–	–
rskaknplyrrrrrrrrr ([dR][dS][dK][dA][dK][dN][dP][dL][dY][dR][dR][dR][dR][dR][dR][dR][dR][dR]) [IKD14800]	–	–	–	–	–	–	induce IL-12 secretion	induces IFN-γ secretion	increase IL-18Ra expression	induces IFN-γ secretion	490	increase IL-18Ra expression	increased	–
B1	–	–	–	–	–	–	–	–	–	–	–	–	–	increased the proportion of CD14 negative CD11c+ dendritic cells
